Experimental data reported in patent US20100272825A1, “METHOD OF DISINFECTING CARCASSES” (JOHNSONDIVERSEY, INC., priority 2006, published 2010).
Values joined by “and” are separate entries in the source; they are usually repeats but may differ in a detail not shown here. Identical values can stand only once.

Columns and labels:
[1] = tested on: Salmonella typhi, ATCC # 6359; assay: AOAC Chlorine (Available) in Disinfectants, subculture series; assay type: cell-based; set-up: key to Subculture Series 1, growth / Subculture Series 10, growth / Subculture Series 2, growth / Subculture Series 3, growth / Subculture Series 4, growth / Subculture Series 5, growth / Subculture Series 6, growth / Subculture Series 7, growth / Subculture Series 8, growth / Subculture Series 9, growth: + = growth; − = no growth
Experimental: (§1) The invention will be further appreciated in light of the following detailed examples. In these examples, a chlorine dioxide solution was obtained by forming chlorous acid from an ion exchange resin, running this through a platinum catalyst to form chlorine dioxide. The chlorine dioxide obtained from the ion exchange resin catalyst combination was generally at about 650-750 ppm at a pH of about 2, which was then diluted with an acid solution of sodium bisulfate to reach the desired use concentration as set forth in the examples.

[2] = tested on: Salmonella typhi, ATCC # 6539; assay: Sanitizing effectiveness: modified Germicidal and Detergent Sanitizing Action of Disinfectants, A.O.A.C.; assay type: cell-based; conditions: 1 ppm Chlorine Dioxide; for Survivors: initial 116,000,000 org/ml
Experimental: as §1

[3] = pH 2.0, contact 10 seconds 25° C.
[4] = pH 2.5, contact 10 seconds 25° C.
[5] = pH 3.0, contact 10 seconds 25° C.
[6] = pH 3.5, contact 10 seconds 25° C.
[7] = pH 4.0, contact 10 seconds 25° C.

[Na+].[O-]Cl [NaOCl, sodium hypochlorite, reference compound]
Subculture Series 1, growth ([1]; NaOCl 50 ppm): − | Subculture Series 2, growth ([1]; NaOCl 50 ppm): + | Subculture Series 3, growth ([1]; NaOCl 50 ppm): + | Subculture Series 4, growth ([1]; NaOCl 50 ppm): + | Subculture Series 5, growth ([1]; NaOCl 50 ppm): + | Subculture Series 1, growth ([1]; NaOCl 100 ppm): − | Subculture Series 2, growth ([1]; NaOCl 100 ppm): − | Subculture Series 3, growth ([1]; NaOCl 100 ppm): − | Subculture Series 4, growth ([1]; NaOCl 100 ppm): − | Subculture Series 5, growth ([1]; NaOCl 100 ppm): + | Subculture Series 6, growth ([1]; NaOCl 100 ppm): + | Subculture Series 7, growth ([1]; NaOCl 100 ppm): + | Subculture Series 8, growth ([1]; NaOCl 100 ppm): + | Subculture Series 9, growth ([1]; NaOCl 100 ppm): + | Subculture Series 10, growth ([1]; NaOCl 100 ppm): + | Subculture Series 1, growth ([1]; NaOCl 200 ppm): − | Subculture Series 2, growth ([1]; NaOCl 200 ppm): − | Subculture Series 3, growth ([1]; NaOCl 200 ppm): − | Subculture Series 4, growth ([1]; NaOCl 200 ppm): − | Subculture Series 5, growth ([1]; NaOCl 200 ppm): − | Subculture Series 6, growth ([1]; NaOCl 200 ppm): − | Subculture Series 7, growth ([1]; NaOCl 200 ppm): − | Subculture Series 8, growth ([1]; NaOCl 200 ppm): + | Subculture Series 9, growth ([1]; NaOCl 200 ppm): + | Subculture Series 10, growth ([1]; NaOCl 200 ppm): +

[O][Cl+][O-] [Chlorine Dioxide, chlorine dioxide]
% Reduction [2, 3]: 99.103% | Survivors [2, 3]: 1,040,000 | % Reduction [2, 4]: 99.207% | Survivors [2, 4]: 920,000 | % Reduction [2, 5]: <97.845% | Survivors [2, 5]: >2,500,000 | % Reduction [2, 6]: <97.845% | Survivors [2, 6]: >2,500,000 | % Reduction [2, 7]: <97.845% | Survivors [2, 7]: >2,500,000 | germicidal efficacy expressed as equivalent concentration of sodium hypochlorite ([1]; 15 ppm of ClO2 at pH 2.5): 200 ppm | germicidal efficacy expressed as equivalent concentration of sodium hypochlorite ([1]; 15 ppm of ClO2 at pH 3.75): > 100 ppm and < 200 ppm | Subculture Series 1, growth ([1]; ClO2 12 ppm, pH = 2.50): − | Subculture Series 2, growth ([1]; ClO2 12 ppm, pH = 2.50): − | Subculture Series 3, growth ([1]; ClO2 12 ppm, pH = 2.50): − | Subculture Series 4, growth ([1]; ClO2 12 ppm, pH = 2.50): − | Subculture Series 5, growth ([1]; ClO2 12 ppm, pH = 2.50): + | Subculture Series 6, growth ([1]; ClO2 12 ppm, pH = 2.50): + | Subculture Series 7, growth ([1]; ClO2 12 ppm, pH = 2.50): + | Subculture Series 8, growth ([1]; ClO2 12 ppm, pH = 2.50): + | Subculture Series 9, growth ([1]; ClO2 12 ppm, pH = 2.50): + | Subculture Series 10, growth ([1]; ClO2 12 ppm, pH = 2.50): + | Subculture Series 1, growth ([1]; ClO2 12 ppm, pH = 3.82): − | Subculture Series 2, growth ([1]; ClO2 12 ppm, pH = 3.82): − | Subculture Series 3, growth ([1]; ClO2 12 ppm, pH = 3.82): + | Subculture Series 4, growth ([1]; ClO2 12 ppm, pH = 3.82): + | Subculture Series 5, growth ([1]; ClO2 12 ppm, pH = 3.82): + | Subculture Series 6, growth ([1]; ClO2 12 ppm, pH = 3.82): + | Subculture Series 7, growth ([1]; ClO2 12 ppm, pH = 3.82): + | Subculture Series 8, growth ([1]; ClO2 12 ppm, pH = 3.82): + | Subculture Series 9, growth ([1]; ClO2 12 ppm, pH = 3.82): + | Subculture Series 10, growth ([1]; ClO2 12 ppm, pH = 3.82): + | Subculture Series 1, growth ([1]; ClO2 15 ppm, pH = 2.50): − | Subculture Series 2, growth ([1]; ClO2 15 ppm, pH = 2.50): − | Subculture Series 3, growth ([1]; ClO2 15 ppm, pH = 2.50): − | Subculture Series 4, growth ([1]; ClO2 15 ppm, pH = 2.50): − | Subculture Series 5, growth ([1]; ClO2 15 ppm, pH = 2.50): − | Subculture Series 6, growth ([1]; ClO2 15 ppm, pH = 2.50): − | Subculture Series 7, growth ([1]; ClO2 15 ppm, pH = 2.50): − | Subculture Series 8, growth ([1]; ClO2 15 ppm, pH = 2.50): − | Subculture Series 9, growth ([1]; ClO2 15 ppm, pH = 2.50): + | Subculture Series 10, growth ([1]; ClO2 15 ppm, pH = 2.50): + | Subculture Series 1, growth ([1]; ClO2 15 ppm, pH = 3.75): − | Subculture Series 2, growth ([1]; ClO2 15 ppm, pH = 3.75): − | Subculture Series 3, growth ([1]; ClO2 15 ppm, pH = 3.75): − | Subculture Series 4, growth ([1]; ClO2 15 ppm, pH = 3.75): − | Subculture Series 5, growth ([1]; ClO2 15 ppm, pH = 3.75): − | Subculture Series 6, growth ([1]; ClO2 15 ppm, pH = 3.75): + | Subculture Series 7, growth ([1]; ClO2 15 ppm, pH = 3.75): + | Subculture Series 8, growth ([1]; ClO2 15 ppm, pH = 3.75): + | Subculture Series 9, growth ([1]; ClO2 15 ppm, pH = 3.75): + | Subculture Series 10, growth ([1]; ClO2 15 ppm, pH = 3.75): +
